Consider three molecules from PMC12495443, “Developing inhibitors of the guanosine triphosphate hydrolysis accelerating activity of Regulator of G protein Signaling-14 [drawing 1]” (The Journal of Biological Chemistry, 2025).

The target of series [1] is T1, human RGS14 RGS-box (wild-type) (Homo sapiens, UniProt O43566).
T1 construct: human RGS14 RGS-box (aa 46–195 of UniProt O43566); host or cells: E. coli
T1 sequence (O43566 46-195): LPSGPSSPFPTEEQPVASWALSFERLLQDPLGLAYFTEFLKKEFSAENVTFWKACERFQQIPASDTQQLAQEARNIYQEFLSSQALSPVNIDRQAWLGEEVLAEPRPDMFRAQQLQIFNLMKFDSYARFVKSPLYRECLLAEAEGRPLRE
The experiment in a line: Transcreener GDP RGScreen fluorescence polarization assay of RGS14 RGS-box GAP activity on Gαi1(DM). The class given is biochemical. The following applies: for IC50: Transcreener GDP RGScreen. In a few lines:
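Steady-state GTP hydrolysis by rate-altered double point-mutant Gαi1 was read by Transcreener GDP fluorescence polarization, with GTP conversion kept below 10% of maximum input. The E. coli-expressed, N-terminal His6-tagged wild-type RGS-boxes were RGS12 aa 695–843 and RGS14 aa 46–195.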
Background: Polarisation of emitted light reports the rotation of a fluorescent probe.

Series [2] concerns the target T2, human RGS12 RGS-box (wild-type) (Homo sapiens, UniProt O14924).
T2 construct: human RGS12 RGS-box (aa 695–843 of UniProt O14924); host or cells: E. coli
T2 sequence (O14924 695-843): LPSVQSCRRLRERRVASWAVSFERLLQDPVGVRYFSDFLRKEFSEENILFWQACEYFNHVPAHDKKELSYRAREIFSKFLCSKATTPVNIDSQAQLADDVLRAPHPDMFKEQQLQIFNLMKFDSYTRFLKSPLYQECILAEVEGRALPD
Nature of the series: Transcreener GDP RGScreen fluorescence polarization assay of RGS12 RGS-box GAP activity on Gαi1(DM). It is filed as biochemical. The following applies: wild-type RGS12 RGS-box GAP activity, Gαi1(DM), read-out: RGS12 pIC50 (converted). From the text: We previously described work with BellBrook Labs creating the Transcreener GDP RGScreen fluorescence polarization assay of steady-state GTP hydrolysis, leveraging a double point-mutant in the Gα enzyme to make GTP hydrolysis, rather than GDP (product) release, the rate-limiting step for multiple rounds of GTP conversion ([57], [59]). […] Titrating inputs of the double point-mutant (“DM”) Gαi1 and RGS-box recombinant proteins (Fig. S2, B and C) established a robust, medium-throughput assay for evaluating potential RGS14 and RGS12 inhibitors, with “assay quality” Z′ scores ([60]) above 0.76 for each target (Fig. S2D).
Reagents and protocols for the fluorescence anisotropy-based Transcreener GDP RGScreen assay using a rate-altered, double point-mutant, recombinant Gαi1 protein have been extensively described previously ([43], [44]); reactions were always performed so that total GTP converted over the time course was consistently less than 10% of reaction maximum input. Specific methods for its application in assessing RGS14 and RGS12 GAP activity are summarized as follows. Open-reading frames (ORFs) encoding wild-type versions of the human RGS14 RGS-box (aa 46–195 of UniProt O43566) and human RGS12 RGS-box (aa 695–843 of UniProt O14924) were each sub-cloned in-frame with an N-terminal hexahistidine (His6) expression tag in the plasmid pET30a, expressed in E. coli cultures, and then purified by nickel-nitriloacetate (Ni-NTA) and size-exclusion (Superdex 200) column chromatographies by GenScript using previously described methods ([35]). These recombinant His6-tag fusion proteins were stored at −80 °C in storage buffer (150 mM NaCl, 50 mM Tris-HCl pH 8.0, 10% glycerol) before thawing and use. Cysteine-less versions were similarly produced by ORF site-directed mutagenesis: for RGS14, codons for cysteine residues 47 and 130 (numbered as in PDB id 2JNU) were replaced with serine codons; for RGS12, codons for cysteines 4, 51, 78, and 134 (numbered in relation to PDB id 2EBZ) were replaced with serine codons. Use of Transcreener GDP-detection reagents to assess compound inhibition of Naegleria fowleri Gα7 protein GTPase activity ([83]) has previously been described ([84]).

For series [3], the target named is T3, RGS14 RGS-box (GAP activity on wild-type Gαi1) (Homo sapiens, UniProt O43566).
T3 sequence (O43566 67-184 limits assumed): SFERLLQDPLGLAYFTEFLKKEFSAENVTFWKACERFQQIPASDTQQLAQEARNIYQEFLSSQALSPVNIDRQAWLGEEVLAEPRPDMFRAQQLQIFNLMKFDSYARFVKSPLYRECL
Nature of the series: Single-turnover [γ-33P]GTP hydrolysis assay of RGS-box GAP activity. The conditions noted are these: wild-type Gαi1, concentration-dependent. The class given is biochemical. From the text:
To further evaluate the functional activity of these triazolothiadiazine derivatives, and especially to eliminate concerns of misascribing GAP-inhibitory activity to potential assay interference, we tested two representative compounds—Z55660043 and Z55627844—in the gold-standard single-turnover radioactive GTP hydrolysis assay ([7], [58]) (Fig. 6).
The single-turnover radiolabeled-GTP hydrolysis assay is the gold standard assay for RGS-box GAP activity, first described using [γ -^32P]GTP by Berman et al. ([7]) and recently modified for modern performance ([91], [92], [93], [94]) to use readily available [γ-^33P]GTP substrate and perchloric acid quenching. The assay was performed by first pre-loading wild-type (WT) Gα protein (i.e., 750 nM purified, recombinant, wild-type-sequence human Gαi1 protein) with a slight excess (1 μM) of [γ-^33P]GTP for 15 min at 30 °C. Assay initiation involved adding purified recombinant RGS protein previously pre-incubated for 30 min at 30 °C with a candidate inhibitor. […] Supernatant aliquots were then added to liquid scintillation fluid and [^33P]-Pi content (i.e., hydrolyzed GTP) was quantified with a scintillation counter with an appropriate β-transmission window.

For another series, the system named is THP-1 cell line. The experiment in a line: Cytotoxicity assays (CytoTox-Glo, CytoTox 96). It is filed as cell-based. The conditions noted are these: THP-1 cells, overnight, CytoTox-Glo and CytoTox 96. The protocol:
To evaluate cellular toxicity of active compounds, we employed the immortalized human monocytic THP1-Dual cell line (InvivoGen) in two orthogonal cytotoxicity assays: ATP-dependent luminescence (CytoTox-Glo) and colorimetric lactate dehydrogenase (LDH) release (CytoTox 96). For each assay, compounds were serially diluted 2-fold starting at 250 μM and added to 96-well flat-bottom tissue culture plates (Thermo Scientific Nunc, Cat# 165306). THP1-Dual cells were then seeded at 20,000 to 30,000 cells per well in 100 μl RPMI 1640 media supplemented with 10% fetal bovine serum (Gibco). Plates were gently mixed and incubated overnight at 37 °C in a humidified 5% CO2 incubator. For the CytoTox-Glo assay (Promega, Cat# G9291), 50 μl of assay reagent was added to each well. Plates were mixed briefly, sealed, and incubated at room temperature for 15 min before reading luminescence on a TECAN Infinite M1000 Pro plate reader to quantify dead-cell signal. Subsequently, 50 μl of a digitonin-containing lysis solution was added to each well, followed by a second luminescence read after 15 min to assess total cell content. Percent cytotoxicity was calculated per manufacturer instructions. For the CytoTox 96 Non-Radioactive Cytotoxicity Assay (Promega, Cat# G1780), after overnight compound treatment, LDH release into the culture medium was measured by adding the provided substrate mix. Absorbance was read at 490 or 492 nm within 1 h of adding the stop solution. Assay optimization and data normalization were conducted according to the manufacturer’s technical manual.

The target of series [4] is T2, human RGS12 RGS-box (wild-type). Further details: method as in earlier work. The following applies: Transcreener GDP RGScreen; ref (8); cited from earlier work.
Series [5] concerns the target T4, cysteine-less RGS14 RGS-box protein (Homo sapiens, UniProt O43566, C100S/C183S).
T4 construct: human RGS14 RGS-box (aa 46–195 of UniProt O43566); host or cells: E. coli
T4 sequence (O43566 46-195 C100S/C183S): T1 sequence (O43566 46-195) with C55S, C138S
Nature of the series: Transcreener GDP RGScreen assay with cysteine-less RGS14 RGS-box. It is filed as biochemical. From the text:
(§1) Given the earlier experience with screening hit CCG-4986 being a covalent modifier of RGS4 cysteine residues ([35]), we sought to exclude protein-thiol reactivity as a potential mechanism of action of the active compounds derived from the AtomNet virtual screening effort ([55]) and SAR campaign follow-ups. To address this possibility and screen out thiol-reactive hits, cysteine-lacking versions of recombinant proteins spanning the RGS-boxes of RGS14 and RGS12 were purified from E. coli cultures.
(§2) Reagents and protocols for the fluorescence anisotropy-based Transcreener GDP RGScreen assay using a rate-altered, double point-mutant, recombinant Gαi1 protein have been extensively described previously ([43], [44]); reactions were always performed so that total GTP converted over the time course was consistently less than 10% of reaction maximum input. Specific methods for its application in assessing RGS14 and RGS12 GAP activity are summarized as follows. Open-reading frames (ORFs) encoding wild-type versions of the human RGS14 RGS-box (aa 46–195 of UniProt O43566) and human RGS12 RGS-box (aa 695–843 of UniProt O14924) were each sub-cloned in-frame with an N-terminal hexahistidine (His6) expression tag in the plasmid pET30a, expressed in E. coli cultures, and then purified by nickel-nitriloacetate (Ni-NTA) and size-exclusion (Superdex 200) column chromatographies by GenScript using previously described methods ([35]). […]
Supplementary Figure S5. […] (A,B) Recombinant, cysteine residue-lacking (“-cys”) RGS14 RGS-box protein (panel A) and cysteine residue-lacking RGS12 RGS-box protein ([…]) were both observed, in a concentration-dependent fashion (indicated in ng/µL by color), to increase steady-state GDP production by 0.5 ng/µL Gai1(DM) protein in a 20 µL final reaction volume, as measured by the Transcreener® GDP-detection RGScreen™ assay and detected by the change in polarization (ΔmP) at each indicated time point (“enz” = Gai1(DM) protein a.k.a. […]

The target in series [6] is T1, human RGS14 RGS-box (wild-type). Further details: method as in earlier work. The following applies: Transcreener GDP RGScreen; ref (8); cited from earlier work.
The target in series [7] is T5, cysteine-less RGS12 RGS-box protein (Homo sapiens, UniProt O14924, C701S/C748S/C775S/C831S).
T5 construct: human RGS12 RGS-box (aa 695–843 of UniProt O14924); host or cells: E. coli
T5 sequence (O14924 695-843 C701S/C748S/C775S/C831S): T2 sequence (O14924 695-843) with C7S, C54S, C81S, C137S
The experiment in a line: Transcreener GDP RGScreen assay with cysteine-less RGS12 RGS-box. The class given is biochemical. The following applies: range given jointly for cysteine-less RGS14 and RGS12 proteins; read-out: estimated IC50, cysteine-less RGS12 RGS-box.
From the text: as §1
as §2, with “Specific methods for its application in assessing RGS14 and RGS12 GAP activity are summarized as follows.” left out

Where [8] appears, read: wild-type RGS14 RGS-box GAP activity, Gαi1(DM), read-out: RGS14 pIC50 (converted).

Positions count from the first letter of the chain named. “Also recorded” adds a separate entry of the source. Read-outs that look alike come from different tables or passages of the source.

As to `COc1ccc(OCc2nnc3n2N=C(c2cc4ccccc4o2)CS3)cc1` [Z55627844], in series [1] (values > 1.0 reflect RGS14 selectivity), the “Ratio (RGS14 pIC50 / RGS12 pIC50)” value is recorded as 1.17. Further, the IC50 in series [1] (setting [8]) is 3.63 µM; in series [2], 21.9 µM. For the same molecule, the “inhibition of RGS14 RGS-box-mediated acceleration of [γ-33P]GTP hydrolysis” value in series [3] was “inhibit RGS14 RGS-box-mediated acceleration”. Besides, the cytotoxicity entry in the series with THP-1 cell line is “without measurable cytotoxicity; also recorded: no overt cytotoxicity”.
In the case of `COc1ccc2[nH]c(SC(C)C(=O)c3c(F)cc(F)cc3F)nc2c1` (stereo not drawn) [Z1098346112, 2-[(5-methoxy-1H-1,3-benzodiazol-2-yl)sulfanyl]-1-(2,4,6-trifluorophenyl)propan-1-one], the “estimated pIC50 RGS12” value in series [4] was 4.4. The IC50 in series [5] (range given jointly for cysteine-less RGS14 and RGS12 proteins, read-out: estimated IC50, cysteine-less RGS14 RGS-box) was 26 to 64 µM; in series [1] (setting [8]), 63.1 µM; in series [7] it was 26 to 64 µM. For the same molecule, the “estimated pIC50RGS14” value in series [6] is on record as 4.2.
On to `CN1C(=O)[C@@]23C[C@]4([C@]56C[C@@]78SS[C@@](CO)(C(=O)N7[C@H]5Nc5ccccc56)N(C)C8=O)c5ccccc5N[C@@H]4N2C(=O)[C@]1(CO)SS3` [chaetocin, reference compound], for which the “inhibitory activity on cysteine-free RGS14 RGS-box (in words)” value in series [5] (compared with wild-type RGS14 RGS-box) is recorded as “largely lost”. Further, in series [1] (wild-type RGS14 RGS-box, read-out: IC50 against RGS14 RGS-box GAP activity), the IC50 turned out to be 0.32 µM.
